According to article PMC10945555, “Improving Activity of New Arylurea Agents against Multidrug-Resistant and Biofilm-Producing Staphylococcus epidermidis” (ACS Medicinal Chemistry Letters, 2024):

Tests used:
[1] = Microsomal stability assay; conditions: RLM, 60 min of incubation
Description: were treated with 100 μL of tested compound at the final concentration of 200 μM, and incubated at 37 °C for 1 h. Triton X-100 (2%) and PBS were used as positive and negative controls, respectively. After centrifugation at 3000 rpm for 3 min, 100 μL of the supernatants were transferred to a 96 well microtiter plate and the hemoglobin release was determined in a SpectraMax iD3 reader (Molecular Devices) by absorption at 540 nm.
2.3.4 Microsomal stability assay […]
following previously reported procedures.7 Tested compound was preincubated at 37 °C in a phosphate buffer (pH 7.4), containing rat liver microsomes (Sigma-Aldrich, Germany), at the concentration of 0.4 mg/mL. After 10 min, NADPH-regenerating system was added to initiate the reaction. At appropriate time points (0, 30 and 60 min), reaction was quenched with ice-cold methanol, containing the internal standard pentoxiphylline. Next samples were centrifuged and the supernatant was subjected to UPLC-MS analysis. From slope of the line on plot Ln (%remaining of parent compounds) vs time, t1/2 was determined. Clint was calculated from […]
experiment was run in duplicate. The metabolized drug verapamil was used as positive control […]
provided by Molecular Discovery Ltd. (Hertfordshire, UK). A highest probability of metabolic sites and metabolite structures were analysed by liver computational model. 8 […]

[2] = test system: Staphylococcus epidermidis clinical strain no. 23; test: Cell membrane potential, DiOC2 flow cytometry; format: cell-based; conditions: 4 × MIC, within 15 min; MSSE, S. epidermidis clinical strain no. 23, S. aureus Newman
Text: 23, and S. aureus Newman (reference strain without known antibiotic resistance determinants). Bacterial strains were stained with 3,3′-diethyloxacarbocyanine iodide (DiOC2) and then treated with the tested compound 25, with carbonyl cyanide 3-chlorophenylhydrazone (CCCP) used as a positive control. Daptomycin was used as a reference compound that causes depolarization of bacterial cell membranes.[22]
(reduction of navy blue resazurin to pink resorufin in the presence of metabolically active cells) compared to the negative (sterile medium without bacteria and compounds) and positive control (medium with bacteria).9 The minimal biofilm eradication concentration value was analyzed using a high throughput screening the MBEC Assay® Kit (Innovotech, Canada), formerly the Calgary Biofilm Device, according to the manufacturer's insert.10 […]
determining MBC (Minimal Bactericidal Concentration) values. […] Then, the value of the MBC/MIC ratio was calculated to assess its bactericidal or bacteriostatic activity. […]
using the BacLight™ Bacterial Membrane Potential Kit (Molecular Probes, Invitrogen, Carlsbad, CA, USA).15 Analysis of the cells was tested in an LSR II flow cytometer (BD Biosciences Immunocytometry Systems, San Jose, CA, USA) equipped with blue, red and violet lasers, using 488 nm excitation for green (530/30 BP filter, 505 LP) and red (610/20 BP, 600 LP) fluorescence. […]

Compound: O=C(Nc1cccc(Cl)c1)NC1CCN(CCC(Oc2ccc(C(F)(F)F)cc2)c2cccs2)CC1 (centres unmarked) [Compound 25]
- Clin [1]: 26.7
- membrane depolarization [2]: depolarization in nearly all bacterial cells
